In PubChem BioAssay (NCI):
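Test compounds were applied to cells in 96-well plates for 48 hours at 5 doses. Definition used: TGI = concentration required for complete inhibition of growth.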

Key:
Assay in all cases: NCI-60 cell line screen, 48 h
786-0 renal = system: 786-0 renal
A498 renal = system: A498 renal
A549 NSCLC = system: A549 NSCLC
ACHN renal = system: ACHN renal
BT-549 breast = system: BT-549 breast
CAKI-1 renal = system: CAKI-1 renal
CCRF-CEM leukemia = system: CCRF-CEM leukemia
COLO 205 colon = system: COLO 205 colon
DU-145 prostate = system: DU-145 prostate
EKVX NSCLC = system: EKVX NSCLC
HCC-2998 colon = system: HCC-2998 colon
HCT-116 colon = system: HCT-116 colon
HCT-15 colon = system: HCT-15 colon
HOP-62 NSCLC = system: HOP-62 NSCLC
HT29 colon = system: HT29 colon
IGROV1 ovarian = system: IGROV1 ovarian
K-562 leukemia = system: K-562 leukemia
KM12 colon = system: KM12 colon
LOX IMVI melanoma = system: LOX IMVI melanoma
M14 melanoma = system: M14 melanoma
MALME-3M melanoma = system: MALME-3M melanoma
MCF7 breast = system: MCF7 breast
MDA-MB-231 breast = system: MDA-MB-231 breast
MDA-MB-435 = system: MDA-MB-435
MDA-N = system: MDA-N
MOLT-4 leukemia = system: MOLT-4 leukemia
NCI-H226 lung = system: NCI-H226 lung
NCI-H23 lung = system: NCI-H23 lung
NCI-H522 lung = system: NCI-H522 lung
NCI/ADR-RES ovarian = system: NCI/ADR-RES ovarian
OVCAR-3 ovarian = system: OVCAR-3 ovarian
OVCAR-4 ovarian = system: OVCAR-4 ovarian
OVCAR-5 ovarian = system: OVCAR-5 ovarian
OVCAR-8 ovarian = system: OVCAR-8 ovarian
PC-3 prostate = system: PC-3 prostate
RPMI-8226 leukemia = system: RPMI-8226 leukemia
RXF 393 renal = system: RXF 393 renal
SF-268 CNS = system: SF-268 CNS
SF-295 CNS = system: SF-295 CNS
SF-539 CNS = system: SF-539 CNS
SK-MEL-2 melanoma = system: SK-MEL-2 melanoma
SK-MEL-28 melanoma = system: SK-MEL-28 melanoma
SK-MEL-5 melanoma = system: SK-MEL-5 melanoma
SK-OV-3 ovarian = system: SK-OV-3 ovarian
SN12C renal = system: SN12C renal
SNB-19 CNS = system: SNB-19 CNS
SNB-75 CNS = system: SNB-75 CNS
SR leukemia = system: SR leukemia
SW-620 colon = system: SW-620 colon
TK-10 renal = system: TK-10 renal
U251 CNS = system: U251 CNS
UACC-257 melanoma = system: UACC-257 melanoma
UACC-62 melanoma = system: UACC-62 melanoma
UO-31 renal = system: UO-31 renal

## COC(=O)C([C@H]1CC[C@H](OCc2ccccc2)[C@@]1(O)COCc1ccccc1)C(C)(O)CCc1ccccc1 (some centres undefined)
786-0 renal
  TGI: 27.4 µM
A498 renal
  TGI: 28.6 µM
A549 NSCLC
  TGI: 27.1 µM
ACHN renal
  TGI: 29.2 µM
BT-549 breast
  TGI: 30.8 µM
CAKI-1 renal
  TGI: > 100 µM
CCRF-CEM leukemia
  TGI: 60.2 µM
COLO 205 colon
  TGI: 25.8 µM
DU-145 prostate
  TGI: 72.7 µM
EKVX NSCLC
  TGI: 38.2 µM
HCC-2998 colon
  TGI: 33.2 µM
HCT-116 colon
  TGI: 24.2 µM
HCT-15 colon
  TGI: 37.4 µM
HOP-62 NSCLC
  TGI: 29.6 µM
HT29 colon
  TGI: 22.2 µM
IGROV1 ovarian
  TGI: 29.3 µM
K-562 leukemia
  TGI: 35.5 µM
KM12 colon
  TGI: 16.4 µM
LOX IMVI melanoma
  TGI: 22.8 µM
M14 melanoma
  TGI: 22.9 µM
MALME-3M melanoma
  TGI: 25.7 µM
MCF7 breast
  TGI: 25.3 µM
MDA-MB-231 breast
  TGI: 26.2 µM
MDA-MB-435
  TGI: 29.4 µM
MDA-N
  TGI: 26.6 µM
MOLT-4 leukemia
  TGI: 19.7 µM
NCI-H226 lung
  TGI: 26.6 µM
NCI-H23 lung
  TGI: 37.8 µM
NCI-H522 lung
  TGI: 26.1 µM
NCI/ADR-RES ovarian
  TGI: 26.5 µM
OVCAR-3 ovarian
  TGI: 27.2 µM
OVCAR-4 ovarian
  TGI: 43.9 µM
OVCAR-5 ovarian
  TGI: 27 µM
OVCAR-8 ovarian
  TGI: 41.5 µM
PC-3 prostate
  TGI: 16.3 µM
RPMI-8226 leukemia
  TGI: 43.3 µM
RXF 393 renal
  TGI: 25.9 µM
SF-268 CNS
  TGI: 22 µM
SF-295 CNS
  TGI: 23.3 µM
SF-539 CNS
  TGI: 29.1 µM
SK-MEL-2 melanoma
  TGI: 25.3 µM
SK-MEL-28 melanoma
  TGI: 30.1 µM
SK-MEL-5 melanoma
  TGI: 27.6 µM
SK-OV-3 ovarian
  TGI: > 100 µM
SN12C renal
  TGI: 16.2 µM
SNB-19 CNS
  TGI: > 100 µM
SNB-75 CNS
  TGI: 19.7 µM
SR leukemia
  TGI: 26.4 µM
SW-620 colon
  TGI: 28.9 µM
TK-10 renal
  TGI: 39.9 µM
U251 CNS
  TGI: 27.2 µM
UACC-257 melanoma
  TGI: 35.1 µM
UACC-62 melanoma
  TGI: 26.6 µM
UO-31 renal
  TGI: 23.7 µM
